Where two headings read alike, the source gives them in different places.
Legend:
[1] = tested on: HCV genotype 1b (Con1) replicon in HUH-7 cells; assay: HCV replicon luciferase reporter assay, genotype 1b; format: cell-based; conditions: Hepatitis C virus, Huh-7, 72 h, 3 days incubation
How it was run: (§1)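 Replicon inhibition for both genotypes was measured as Renilla luciferase signal (EnduRen, 7.5 μM final, 2 h) after 3-day, 37° C exposure of replicon-bearing HUH-7 cells in 4% FCS DMEM, 0.5% DMSO. The 1b construct carries S1179I; the 1a H77 construct carries P1496L and S2204I. Twenty-point, 3-fold dilutions were fitted four-parametrically for EC50, and CC50 was taken from multiplexed Cell Titer-Blue.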

[2] = tested on: HCV genotype 1a (H77 strain) replicon in HUH-7 cells; assay: HCV replicon luciferase reporter assay, genotype 1a; format: cell-based; conditions: Hepatitis C virus, Huh-7, 72 h, 3 days incubation
How it was run: as §1

[3] = HCV genotype 1b replicon luciferase, read-out: LE_1b (EC50, range)
[4] = HCV genotype 1a replicon luciferase, read-out: LE_1a (EC50, range)
[5] = HCV genotype 1b replicon luciferase, read-out: LE_1b (EC50)
[6] = HCV genotype 1a replicon luciferase, read-out: LE_1a (EC50)
[7] = HCV genotype 1b replicon luciferase assay, range class, read-out: LE_1b (EC50, range)
[8] = HCV genotype 1a replicon luciferase assay, range class, read-out: LE_1a (EC50, range)

SMILES | EC50 [1, 3] [nM] | EC50 [2, 4] [nM] | EC50 [1, 5] [nM] | EC50 [2, 6] [nM] | EC50 [1, 7] [nM] | EC50 [2, 8] [nM]
COc1cc2ccnc(O[C@@H]3C[C@H]4C(=O)N[C@]5(C(=O)NS(=O)(=O)C6(CF)CC6)C[C@H]5/C=C\CC[C@@H](C)C[C@@H](C)[C@H](NC(=O)OC(C)(C)C)C(=O)N4C3)c2cc1F [Compound 4159, tert-butyl (2R,6S,7R,9R,13aS,14aR,16aS,Z)-2-(7-fluoro-6-methoxyisoquinolin-1-yloxy)-14a-(1-(fluoromethyl)cyclopropylsulfonylcarbamoyl)-7,9-dimethyl-5,16-dioxo-1,2,3,5,6,7,8,9,10,11,13a,14,14a,15,16,16a-hexadecahydrocyclopropa[e]pyrrolo[1,2-a][1,4]diazacyclopentadecin-6-ylcarbamate] | < 5.46 | < 5.46 | – | – | – | –
C[C@@H]1CC/C=C\[C@@H]2C[C@@]2(C(=O)NS(=O)(=O)C2(C)CC2)NC(=O)[C@@H]2C[C@@H](Oc3ncc(OC4CC4)c4ccccc34)CN2C(=O)[C@@H](NC(=O)OC(C)(C)C(F)(F)F)[C@H](C)C1 [Compound 4056, 1,1,1-trifluoro-2-methylpropan-2-yl ((2R,6S,7R,9R,13aS,14aR,16aS,Z)-2-((4-cyclopropoxyisoquinolin-1-yl)oxy)-7,9-dimethyl-14a-(((1-methylcyclopropyl)sulfonyl)carbamoyl)-5,16-dioxo-1,2,3,5,6,7,8,9,10,11,13a,14,14a,15,16,16a-hexadecahydrocyclopropa[e]pyrrolo[1,2-a][1,4]diazacyclopentadecin-6-yl)carbamate] | < 5.46 | < 5.46 | – | – | – | –
C[C@H]1CC/C=C\[C@@H]2C[C@@]2(C(=O)NS(=O)(=O)C2(C)CC2)NC(=O)[C@@H]2C[C@@H](Oc3nc4c(c5ccccc35)OCCC4)CN2C(=O)[C@@H](NC(=O)OC(C)(C)C(C)(F)F)[C@H](C)C1 [Compound 6033, 3,3-difluoro-2-methylbutan-2-yl((2R,6S,7R,9S,13aS,14aR,16aS,Z)-2-((3,4-dihydro-2H-pyrano[3,2-c]isoquinolin-6-yl)oxy)-7,9-dimethyl-14a-(((1-methylcyclopropyl)sulfonyl)carbamoyl)-5,16-dioxo-1,2,3,5,6,7,8,9,10,11,13a,14,14a,15,16,16a-hexadecahydrocyclopropa[e]pyrrolo[1,2-a][1,4]diazacyclopentadecin-6-yl)carbamate] | < 5.46 | 4.82 to 103 | 4.38 | 10.7 | – | –
COc1ccc2nc(O[C@@H]3C[C@H]4C(=O)N[C@]5(C(=O)NS(=O)(=O)C6(C)CC6)C[C@H]5/C=C\CC[C@@H](C)C[C@@H](C)[C@H](NC(=O)OC(C)(C)C)C(=O)N4C3)c(-c3ccc(OC(C)C)cc3)nc2c1 [Compound 4260, tert-butyl ((2R,6S,7R,9R,13aS,14aR,16aS,Z)-2-((3-(4-isopropoxyphenyl)-6-methoxyquinoxalin-2-yl)oxy)-7,9-dimethyl-14a-(((1-methylcyclopropyl)sulfonyl)carbamoyl)-5,16-dioxo-1,2,3,5,6,7,8,9,10,11,13a,14,14a,15,16,16a-hexadecahydrocyclopropa[e]pyrrolo[1,2-a][1,4]diazacyclopentadecin-6-yl)carbamate] | 1.01 to 5 | 1.01 to 5 | – | – | – | –
COc1ccc2c(O[C@@H]3C[C@H]4C(=O)N[C@]5(C(=O)NS(=O)(=O)C6(CF)CC6)C[C@H]5/C=C\CC[C@H](C)C[C@@H](C)[C@H](NC(=O)OC(C)(C)C(F)(F)F)C(=O)N4C3)nc(C(F)(F)F)cc2c1 [Compound 1168, 1,1,1-trifluoro-2-methylpropan-2-yl((2R,6S,7R,9S,13aS,14aR,16aS,Z)-14a-(((1-(fluoromethyl)cyclopropyl)sulfonyl)carbamoyl)-2-((6-methoxy-3-(trifluoromethyl)isoquinolin-1-yl)oxy)-7,9-dimethyl-5,16-dioxo-1,2,3,5,6,7,8,9,10,11,13a,14,14a,15,16,16a-hexadecahydrocyclopropa[e]pyrrolo[1,2-a][1,4]diazacyclopentadecin-6-yl)carbamate] | – | – | – | – | 4.82 to 103 | 4.82 to 103
COc1ccc2c(O[C@@H]3C[C@H]4C(=O)N[C@]5(C(=O)NS(=O)(=O)C6(C)CC6)C[C@H]5/C=C\CC[C@@H](C)C[C@@H](C)[C@H](NC(=O)O[C@@H]5C[C@@H]6C[C@@H]6C5)C(=O)N4C3)nc(-c3ccc(OC(C)C)c(F)c3)cc2c1 [Compound 3072, (1R,3r,5S)-bicyclo[3.1.0]hexan-3-yl((2R,6S,7R,9R,13aS,14aR,16aS,Z)-2-((3-(3-fluoro-4-isopropoxyphenyl)-6-methoxyisoquinolin-1-yl)oxy)-7,9-dimethyl-14a-(((1-methylcyclopropyl)sulfonyl)carbamoyl)-5,16-dioxo-1,2,3,5,6,7,8,9,10,11,13a,14,14a,15,16,16a-hexadecahydrocyclopropa[e]pyrrolo[1,2-a][1,4]diazacyclopentadecin-6-yl)carbamate] | – | – | – | – | < 5.46 | < 5.46
CCCOc1cnc(O[C@@H]2C[C@H]3C(=O)N[C@]4(C(=O)NS(=O)(=O)C5(C)CC5)C[C@H]4/C=C\CC[C@H](C)C[C@@H](C)[C@H](NC(=O)O[C@@H]4C[C@@H]5C[C@@H]5C4)C(=O)N3C2)c2ccccc12 [Compound 5080, (1R,3r,5S)-bicyclo[3.1.0]hexan-3-yl((2R,6S,7R,9S,13aS,14aR,16aS,Z)-7,9-dimethyl-14a-(((1-methylcyclopropyl)sulfonyl)carbamoyl)-5,16-dioxo-2-((4-propoxyisoquinolin-1-yl)oxy)-1,2,3,5,6,7,8,9,10,11,13a,14,14a,15,16,16a-hexadecahydrocyclopropa[e]pyrrolo[1,2-a][1,4]diazacyclopentadecin-6-yl)carbamate] | 4.82 to 103 | > 87.4 | – | – | – | –
[2H]C([2H])([2H])C(OC(=O)N[C@@H]1C(=O)N2C[C@H](Oc3nccc4c5c(ccc34)N(C)CCO5)C[C@H]2C(=O)N[C@]2(C(=O)NS(=O)(=O)C3(C)CC3)C[C@H]2/C=C\CC[C@H](C)C[C@H]1C)(C([2H])([2H])[2H])C(F)(F)F [Compound 5297, 1,1,1,3,3,3-hexadeutero-2-(trifluoromethyl)propan-2-yl((2R,6S,7R,9S,13aS,14aR,16aS,Z)-7,9-dimethyl-2-((4-methyl-3,4-dihydro-2H-[1,4]oxazino[2,3-f]isoquinolin-7-yl)oxy)-14a-(((1-methylcyclopropyl)sulfonyl)carbamoyl)-5,16-dioxo-1,2,3,5,6,7,8,9,10,11,13a,14,14a,15,16,16a-hexadecahydrocyclopropa[e]pyrrolo[1,2-a][1,4]diazacyclopentadecin-6-yl)carbamate] | < 5.46 | 4.82 to 103 | 3.16 | 7.06 | – | –
COc1nnc(O[C@@H]2C[C@H]3C(=O)N[C@]4(C(=O)NS(=O)(=O)C5(C)CC5)C[C@H]4/C=C\CC[C@@H](C)C[C@@H](C)[C@H](NC(=O)NC(C)(C)C)C(=O)N3C2)c2ccccc12 [Compound 5012, (2R,6S,7R,9R,13aS,14aR,16aS,Z)-6-(3-(tert-butyl)ureido)-2-((4-methoxyphthalazin-1-yl)oxy)-7,9-dimethyl-N-((1-methylcyclopropyl)sulfonyl)-5,16-dioxo-1,2,3,5,6,7,8,9,10,11,13a,14,14a,15,16,16a-hexadecahydrocyclopropa[e]pyrrolo[1,2-a][1,4]diazacyclopentadecine-14a-carboxamide] | < 5.46 | < 5.46 | – | – | – | –

Reference: US9499550B2 (BRISTOL-MYERS SQUIBB COMPANY, priority 2012, dated 2016)
